Laboratory results as given in publication PMC6556873, “Rapid Covalent-Probe Discovery by Electrophile-Fragment Screening” (Journal of the American Chemical Society, 2019).
Read-outs that look alike come from different tables or passages of the source.

Legend:
[1] = in vitro; set-up: species or system CCD841, HEK293; details: human, hb2 cells, read-out: HB-2 Cells Viability (%)
[2] = in vitro; set-up: species or system HB2, CCD841; details: human, hek293 cells
[3] = biological target: T1, BSA (Bos taurus, UniProt P02769); set-up: Intact protein LC/MS covalent labelling, fragments in pools of five, 200 uM each, 4 °C; details: 24 h, 4 °C, pool of five; 200 µM; covalent
T1 construct: gene ALB

[4] = biological target: T2, OTUB2 (OTUB2A) (Homo sapiens, UniProt Q96DC9); set-up: Intact protein LC/MS covalent labelling, fragments in pools of five, 200 uM each, 4 °C; details: 24 h, 4 °C, pool of five; 200 µM; covalent
T2 construct: full length residues 1-234, E. coli BL21(DE3)-R3, His tag removed by TEV, construct 27312 Da
T2 sequence (Q96DC9 1-234): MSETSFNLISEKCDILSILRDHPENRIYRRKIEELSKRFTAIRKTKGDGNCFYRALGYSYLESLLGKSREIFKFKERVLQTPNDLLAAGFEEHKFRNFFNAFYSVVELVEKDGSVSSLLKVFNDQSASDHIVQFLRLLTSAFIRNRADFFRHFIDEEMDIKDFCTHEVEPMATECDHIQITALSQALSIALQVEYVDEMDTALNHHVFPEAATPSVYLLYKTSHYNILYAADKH

[5] = biological target: T3, PCAF (Homo sapiens, UniProt Q92831); set-up: Intact protein LC/MS covalent labelling, fragments in pools of five, 200 uM each, 4 °C; details: 24 h, 4 °C, pool of five; 200 µM; covalent
T3 construct: gene KAT2B

[6] = biological target: T4, NNMT (hNNMT) (Homo sapiens, UniProt P40261); set-up: Intact protein LC/MS covalent labelling, fragments in pools of five, 200 uM each, 4 °C; details: 24 h, 4 °C, pool of five; 200 µM; covalent
T4 construct: wild type, N-terminal His6 tag kept (no cleavage described), E. coli, construct 31248 Da
T4 sequence (P40261 1-264): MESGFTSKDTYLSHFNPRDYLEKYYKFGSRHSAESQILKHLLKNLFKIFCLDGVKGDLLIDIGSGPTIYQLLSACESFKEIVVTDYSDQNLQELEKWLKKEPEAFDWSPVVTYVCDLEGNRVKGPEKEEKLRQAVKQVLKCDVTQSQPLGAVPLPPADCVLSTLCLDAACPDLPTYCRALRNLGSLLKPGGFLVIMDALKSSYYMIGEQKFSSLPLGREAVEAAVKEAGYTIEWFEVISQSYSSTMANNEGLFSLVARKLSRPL

[7] = biological target: T5, NUDT7 (Homo sapiens, UniProt P0C024); set-up: Intact protein LC/MS covalent labelling, fragments in pools of five, 200 uM each, 4 °C; details: 24 h, 4 °C, pool of five; 200 µM; covalent
T5 construct: residues 14-235, E. coli, pNIC28-Bsa4, N-terminal His6 tag removed by TEV, construct 26672 Da

[8] = in vitro; set-up: species or system HB2, HEK293; details: human, ccd841 cells

T1 sequence (P02769 whole entry, the tested form may be a part): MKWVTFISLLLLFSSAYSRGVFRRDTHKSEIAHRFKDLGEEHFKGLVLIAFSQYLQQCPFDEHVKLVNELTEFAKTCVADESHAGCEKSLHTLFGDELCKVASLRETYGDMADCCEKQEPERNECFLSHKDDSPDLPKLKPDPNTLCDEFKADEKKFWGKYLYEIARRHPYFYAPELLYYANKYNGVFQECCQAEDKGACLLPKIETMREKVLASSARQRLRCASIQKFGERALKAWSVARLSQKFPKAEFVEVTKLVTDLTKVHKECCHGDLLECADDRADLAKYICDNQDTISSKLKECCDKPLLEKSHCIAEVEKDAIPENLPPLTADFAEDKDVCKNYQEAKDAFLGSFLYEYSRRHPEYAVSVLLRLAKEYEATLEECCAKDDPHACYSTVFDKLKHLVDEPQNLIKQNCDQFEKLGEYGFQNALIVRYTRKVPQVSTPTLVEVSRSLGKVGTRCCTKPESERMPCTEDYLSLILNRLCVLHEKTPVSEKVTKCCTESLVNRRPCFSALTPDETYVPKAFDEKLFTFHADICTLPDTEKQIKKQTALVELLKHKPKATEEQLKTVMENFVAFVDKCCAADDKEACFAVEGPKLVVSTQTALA
T3 sequence (Q92831 whole entry, the tested form may be a part): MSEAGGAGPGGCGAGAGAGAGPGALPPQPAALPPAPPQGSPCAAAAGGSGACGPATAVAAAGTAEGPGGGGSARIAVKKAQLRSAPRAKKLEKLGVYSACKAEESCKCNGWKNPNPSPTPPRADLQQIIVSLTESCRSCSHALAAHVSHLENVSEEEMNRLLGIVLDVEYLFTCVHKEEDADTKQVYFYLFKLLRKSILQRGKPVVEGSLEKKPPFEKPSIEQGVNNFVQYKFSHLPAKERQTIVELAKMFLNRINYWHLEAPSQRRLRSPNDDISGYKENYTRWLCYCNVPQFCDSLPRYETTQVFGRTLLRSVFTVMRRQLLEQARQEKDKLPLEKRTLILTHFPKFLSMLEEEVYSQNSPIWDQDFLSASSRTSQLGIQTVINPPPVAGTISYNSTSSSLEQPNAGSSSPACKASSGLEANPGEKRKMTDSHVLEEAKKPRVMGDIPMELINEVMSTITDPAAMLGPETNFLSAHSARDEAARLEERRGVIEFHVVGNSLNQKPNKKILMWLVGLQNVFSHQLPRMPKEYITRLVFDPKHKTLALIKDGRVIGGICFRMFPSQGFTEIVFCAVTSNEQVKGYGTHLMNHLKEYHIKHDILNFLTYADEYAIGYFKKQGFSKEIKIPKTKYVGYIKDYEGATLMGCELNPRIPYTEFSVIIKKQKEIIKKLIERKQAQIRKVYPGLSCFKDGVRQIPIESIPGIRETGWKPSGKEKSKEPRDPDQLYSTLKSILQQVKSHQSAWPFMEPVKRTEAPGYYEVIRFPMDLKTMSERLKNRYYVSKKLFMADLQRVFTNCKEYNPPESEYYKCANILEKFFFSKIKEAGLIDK
T5 sequence (P0C024 14-235): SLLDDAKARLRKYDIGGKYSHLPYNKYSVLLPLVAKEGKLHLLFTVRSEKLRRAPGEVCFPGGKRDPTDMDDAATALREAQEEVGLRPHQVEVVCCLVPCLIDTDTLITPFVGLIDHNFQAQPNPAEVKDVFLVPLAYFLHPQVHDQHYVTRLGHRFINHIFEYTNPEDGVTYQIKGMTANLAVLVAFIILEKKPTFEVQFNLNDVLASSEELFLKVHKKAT

| Structure (SMILES) | BSA [3] | OTUB2 [4] | PCAF [5] | NNMT [6] | NUDT7 [7] | viability at 48 h, 10 µM [1] [%] | viability at 48 h, 10 µM [2] [%] | viability at 48 h, 10 µM [8] [%] |
| --- | --- | --- | --- | --- | --- | --- | --- | --- |
| CC(C)N(C(=O)CCl)c1ccccc1 [PCM-0102272] | 0 | 0 | 0 | 0 | 0.22 | 58.6 | 16 | 17.7 |
| CC(C)C(C)(C#N)NC(=O)CCl (stereo not shown) [PCM-0102626] | 0 | 0 | 0 | 0 | 0 | 96.4 | 89.9 | 82.1 |
| O=C(CCl)N1CCN(S(=O)(=O)c2cccs2)CC1 [PCM-0102241] | 0 | 0 | 0 | 0 | 0.12 | 8.9 | 8.9 | 49.1 |
| C=CC(=O)NCC1CCC2(CCOCC2)C1O (stereo not shown) [PCM-0102569] | 0 | 0 | 0 | 0.36 | 0.11 | 110 | 84.7 | 110 |
| C=CC(=O)NCC1(O)CCCC(C(F)(F)F)C1 (stereo not shown) [PCM-0102720] | 0 | 0.08 | 0 | 0 | 0 | 93.2 | 106 | 107 |
| O=C(CCl)N1CCN(C(=O)c2ccco2)CC1 [PCM-0102248] | 0.06 | 0 | 0 | 0.1 | 0.09 | 78.1 | 35.6 | 73.2 |
| O=C(CCl)Nc1ccnn1C1CCCC1 [PCM-0102336] | 0 | 0.19 | 0 | 0 | 0 | 41.3 | 7.7 | 60.4 |
| Cl.O=C(CCl)N1CCN(Cc2cccc(Cl)c2)CC1 [PCM-0102269] | 0 | 0.19 | 0 | 0 | 0 | 6.3 | 7.9 | 24.2 |

Further lines, with some results ahead:

| BSA [3] | OTUB2 [4] | PCAF [5] | NNMT [6] | NUDT7 [7] | Structure (SMILES) | viability at 48 h, 10 µM [1] [%] | viability at 48 h, 10 µM [2] [%] | viability at 48 h, 10 µM [8] [%] |
| --- | --- | --- | --- | --- | --- | --- | --- | --- |
| 0 | 0.3 | 0 | 0 | 0 | O=C(CCl)Nc1ccc2[nH]c(=O)[nH]c2c1 [PCM-0102866] | 77.3 | 27.5 | 73.7 |
| 0 | 0.3 | 0 | 0 | 0 | O=C(CCl)Nc1ccon1 [PCM-0103077] | 77.3 | 64.8 | 61.1 |
| 0 | 0 | 0 | 0 | 0 | COCC(=O)NC(=O)CCl [PCM-0102904] | 101 | 105 | 116 |
| 0 | 0.18 | 0 | 0 | 0 | C=CC(=O)N1CC(OC(=O)NC(C)C)C1 [PCM-0102728] | 99.7 | 110 | 108 |
| 0 | 0 | 0 | 0 | 0 | CC(C)N(C(=O)CCl)C(C)C [PCM-0103023] | 102 | 110 | 106 |
| 0 | 0.23 | 0 | 0.55 | 0 | O=C(CCl)NC(=O)NCc1cccs1 [PCM-0102753] | 61.5 | 55.8 | 71.1 |
